According to US10800794B2, “Heterocycle-substituted bicyclic azole pesticides” (priority 2015, dated 2020):

Tested on: sweetpotato whitefly (Bemisia tabaci (Gennadius))
Test: Test D: control of sweetpotato whitefly through contact and/or systemic means, sprayed cotton plant infested with eggs
Assay type: in vivo
Conditions: sprayed at 50 ppm, assessed after 13 days at 28° C.
Protocol: Test compounds were formulated using a solution containing 10% acetone, 90% water and 300 ppm X-77® Spreader Lo-Foam Formula non-ionic surfactant containing alkylarylpolyoxyethylene, free fatty acids, glycols and isopropanol (Loveland Industries, Inc. Greeley, Colo., USA). The formulated compounds were applied in 1 mL of liquid through a SUJ2 atomizer nozzle with ⅛ JJ custom body (Spraying Systems Co. Wheaton, Ill., USA) positioned 1.27 cm (0.5 inches) above the top of each test unit. Test compounds were sprayed at the rates indicated, and each test was replicated three times.
For evaluating control of the sweetpotato whitefly (Bemisia tabaci (Gennadius)) through contact and/or systemic means, the test unit consisted of a small open container with a 12-14-day-old cotton plant inside. Prior to the spray application, both cotyledons were removed from the plant, leaving one true leaf for the assay. Adult whiteflies were allowed to lay eggs on the plant and then were removed from the test unit. Cotton plants infested with at least 15 eggs were submitted to the test for spraying.
Test compounds were formulated and sprayed at 250 and/or 50 ppm. After spraying, the test units were allowed to dry for 1 hour. […] Each test unit was then visually assessed for insect mortality.

Question: For CN(C)C(=O)C(C)(C)NC(=O)c1csc2nc(-c3cncc(F)c3)cn12 [Compound 14], which mortality is on record?
Answer: Its mortality is “at least 80%”.
